How the values were obtained:
[1] = test system: c-Jun active phosphorylated form (p-c-Jun); experiment: Cell-front migration assay, p-c-Jun immunostaining; type: cell-based, Mink; details: 12.5/3.12 µM/mM OA/HP-β-CD, 5 µM OA/DMSO
Method: Mv1Lu cells are grown until they reach confluence on round glass-coverslips in 10% FBS-EMEM medium. At this time, cells are washed and a 24h serum-starvation period is set by replacing the medium with FBS-free EMEM. After this, the epithelium is scratched using a razor blade, which produces an artificial wound with enough space to allow cells to migrate. […] After the selected times of incubation, glass-coverslips are fixed with 4% formaldehyde (Applichem GmbH, Darmstadt, Germany) in PBS (Biowest, Nuaillé, France) for 10 minutes and washed twice with PBS. After this, cells are permeabilized with 0,3% Triton X-100 (Sigma-Aldrich, St Louis, MO, USA) in PBS for 10 minutes. […] In order to quantify phospho-c-Jun levels in immunofluorescence pictures, images are analyzed and quantified by Image J software. […] Within each sector, the quantified signal of each nucleus is used as a replicate to obtain p-c-Jun intensity data in each of the conditions performed. For a better understanding, the relation of number of p-c-Jun positive nuclei between total nuclei number is calculated. For this purpose, a basal p-c-Jun intensity mean is calculated considering the control condition of the assays, set as a threshold. […]
Data of intensity values obtained from p-c-Jun nuclei quantifications in immunofluorescence pictures are analyzed by using two statistic tests: Two-way ANOVA test and One-way ANOVA test.

[2] = test system: c-Jun; experiment: Western blot; type: cell-based, Human; details: 21/5.25 µM/mM OA/HP-β-CD; 10 µM OA/DMSO
Method: (§1) Mv1Lu or MDA-MB-231 cells are seeded and allowed to reach 60% confluence in 10 cm diameter plates. At this time, culture medium containing 10% FBS is replaced by an FBS-free medium, incubating the cells for a 24-hours period. Serum-deprived cells are treated with either OA, OA/HP-β-CD, DMSO, HP-β-CD or 10 ng/ml EGF. After time incubations, cells are harvested, washed twice with ice-cold PBS and lysed with 20 mM TRIS pH 7.5, 150 mM NaCl, 1 mM EDTA, 1.2 mM MgCl2, 0.5%, Nonidet p-40, 1mM DTT, 25 mM NaF and 25 mM β-glycerophosphate supplemented with phosphatase inhibitors (I and II) and protease inhibitors (all from Sigma-Aldrich, St Louis, MO, USA). Total protein amount of all extracts is measured and normalized by Bradford assay (Sigma-Aldrich, St Louis, MO, USA). The extracts are analyzed by SDS-PAGE followed by Western blot (WB) using the indicated antibodies (see Antibodies section). […] For protein quantification, Western pictures in 8-bit format are processed in imaged software. Subsequently, in all Western blot pictures, a lane is stablished for each of the samples. In each lane, the band is selected according to the specific size (kDa) of the protein of interest. For each total protein and their phosphorylated version, each band's intensity peak is plotted, and next, the area under the plot is measured by using "Wand (tracing) tool" of imaged to obtain the intensity value. In order to normalize, obtained intensity values are referred to obtained intensity values of either the unphosphorylated form of the protein (total) or a loading control protein such as β-actin, only if the unphosphorylated form is undetectable (non-available antibody for detecting the unphosphorylated form). […]

[3] = test system: phospho-c-Jun (Ser 63); experiment: Western blot; type: cell-based, Human; details: 21/5.25 µM/mM OA/HP-β-CD; 10 µM OA/DMSO
Method: as §1

[4] = test system: phospho-JNK1/2 (Thr 183/Tyr 185); experiment: Western blot; type: cell-based, Human; details: 21/5.25 µM/mM OA/HP-β-CD; 10 µM OA/DMSO
Method: as §1

[5] = test system: focal adhesions (FAs) revealed by Paxillin; experiment: Cell-front migration assay, focal adhesions by paxillin immunostaining; type: cell-based, Mink; details: 6 and 12 hours; 12.5/3.12 µM/mM OA/HP-β-CD; 5 µM OA/DMSO; versus basal and vehicle control
Method: Mv1Lu cells are grown until they reach confluence on round glass-coverslips in 10% FBS-EMEM medium. At this time, cells are washed and a 24h serum-starvation period is set by replacing the medium with FBS-free EMEM. After this, the epithelium is scratched using a razor blade, which produces an artificial wound with enough space to allow cells to migrate. […] After the selected times of incubation, glass-coverslips are fixed with 4% formaldehyde (Applichem GmbH, Darmstadt, Germany) in PBS (Biowest, Nuaillé, France) for 10 minutes and washed twice with PBS. After this, cells are permeabilized with 0,3% Triton X-100 (Sigma-Aldrich, St Louis, MO, USA) in PBS for 10 minutes. For immunostaining, a blocking is performed for 30 minutes at room temperature in PBS solution with 10% FBS, 5% skim milk (Beckton Dickinson, Franklin Lakes, NJ, USA), 0,3% bovine serum albumin (BSA, Sigma-Aldrich, St Louis, MO, USA) and 0,1% Triton X-100. Then, cells are incubated 1 hour at room temperature with anti-paxillin or anti-phospho-c-Jun antibodies, diluted in blocking solution without skim milk. […] Briefly, focal adhesions are quantified from paxillin stained acquired pictures. […] Then, the number of FAs are calculated in each filopodia by using the previously mentioned macros. […] In parallel, the size of each FA is measured using the macros mentioned above. Finally, FA average size is calculated for each treatment.

## Oleanolic acid [OA/DMSO]
[1]; 6 and 12 hours
  p-c-Jun in cells at the edge of the wound (immunostaining): promote the up-regulation of this active form of c-Jun
[1]
  p-c-Jun fluorescence in the nuclei (quantified): promoted the expression and activation of this factor
[2]
  total c-Jun levels: stimulated c-Jun overexpression at the early time of 1 h
[3]
  p-c-Jun: stronger stimulation of p-c-Jun at time 1 hour
[4]
  p-JNK1/2: stimulated this kinase at time 1 hours
[5]
  number of adhesion foci (FAs density): greater number of adhesion foci
  size of adhesion foci (FA average size): small foci

Source: EP4523682A1, “PROCESS TO COMPLEX OLEANOLIC ACID WITH CYCLODEXTRINS AND PRODUCTS OBTAINED THEREOF” (FUNDACION UNIVERSITARIA SAN ANTONIO (UCAM), priority 2023, dated 2025)
